pIC50: −log10 of the molar value.

For the assay, the target named is T1, b-Raf (Homo sapiens, UniProt P15056, V600E).
T1 construct: endogenous in cells; host or cells: A2058 human melanoma cells
Briefly: Raf cellular assay (phospho-Mek1/2 ELISA in A2058 cells). The format is cell-based. To be noted: Table 3; human melanoma A2058 cells (b-Raf mutation), Mek1/2 Ser217/221 phosphorylation, 1 hour incubation; read-out: pMEK IC50. The procedure: Compounds of the present invention were evaluated for potency against b-Raf using a cellular assay as follows. The activity of Raf kinases in cells is determined by measuring the level of phosphorylation of Mek1/2 at serine 217/221, the site phosphorylated by Raf kinases in vivo. Mek1/2 Ser phosphorylation is measured using anti-phospho-Mek1/2 antibodies (Cell Signaling #9121) in an ELISA format.
Healthy growing human melanoma A2058 cells (harboring a b-Raf mutation) are used for the assay. A2058 cells are grown in 10% FBS DMEM medium. When the cells are near 85%+confluence, the cells are rinsed with PBS once and trypsinized with trypsin/EDTA for 3 minutes. The cells are resuspended in 10% FBS DMEM and are centrifuged down at 1000 rpm for 5 minutes. The cells are resuspended in 10% FBS DMEM and counted on a cell counter. The cells are seeded at 50,000 cells/well in a volume of 100 μL/well in 10% FBS DMEM in a 96 well flat-bottom plate. The negative control wells receive only 100 μL of 10% FBS DMEM medium without cells. The plate is incubated overnight in a cell culture incubator with 5% CO2 at 37° C.
On day 2, testing compounds are prepared in 10% FBS DMEM medium and serially diluted at 1:3 for 11 test concentrations. Each concentration of the compounds is tested in duplicate. The compound solutions are added at 25 μL/well to the corresponding wells in the cell plate, and 25 μL/well of the vehicle (0.5% DMSO in 10% FBS DMEM) is added to the negative control wells (no cells) and the positive control wells (cells without compounds). The plate is incubated for 1 hour in a cell culture incubator with 5% CO2 at 37° C. After 1 hour of incubation, the medium is removed, 100 μL/well of cell lysis buffer is added into the cell plate, and the plate is shaken for 15 minutes at room temperature. After 15 minutes, the cell lysates are transferred to an ELISA plate (pre-coated with anti-Mek1 anti-body, Cell Signaling #2352), and the plate is incubated with gentle shaking for 2 hours at room temperature. After 2 hours, the contents of the wells are aspirated and the wells are washed 4 times with wash buffer. 100 μL of phospho-Mek1/2 detection antibody (Cell Signaling #9121) is added into each well and the plate is incubated with gentle shaking for 1 hour at room temperature. After 1 hour, the wells are aspirated and washed 4 times with wash buffer. 100 μL of anti-rabbit IgG HRP-linked antibody (Cell Signaling #7074) is added to each well, and the plate is incubated with gentle shaking for 1 hour at room temperature. After 1 hour, the contents of the wells are aspirated and the wells are washed 4 times with wash buffer. 100 μL of TMB substrate solution (Sigma #T0440) is added into each well, and the plate is incubated with gentle shaking at room temperature for 10 to 20 minutes. After color development, 100 μL of stop solution (1N hydrochloric acid) is added to each well to terminate color development. The plate is read at 450 nm on an ELISA plate reader.
Background: ELISA stands for enzyme-linked immunosorbent assay.

T1 sequence (P15056 whole entry V600E): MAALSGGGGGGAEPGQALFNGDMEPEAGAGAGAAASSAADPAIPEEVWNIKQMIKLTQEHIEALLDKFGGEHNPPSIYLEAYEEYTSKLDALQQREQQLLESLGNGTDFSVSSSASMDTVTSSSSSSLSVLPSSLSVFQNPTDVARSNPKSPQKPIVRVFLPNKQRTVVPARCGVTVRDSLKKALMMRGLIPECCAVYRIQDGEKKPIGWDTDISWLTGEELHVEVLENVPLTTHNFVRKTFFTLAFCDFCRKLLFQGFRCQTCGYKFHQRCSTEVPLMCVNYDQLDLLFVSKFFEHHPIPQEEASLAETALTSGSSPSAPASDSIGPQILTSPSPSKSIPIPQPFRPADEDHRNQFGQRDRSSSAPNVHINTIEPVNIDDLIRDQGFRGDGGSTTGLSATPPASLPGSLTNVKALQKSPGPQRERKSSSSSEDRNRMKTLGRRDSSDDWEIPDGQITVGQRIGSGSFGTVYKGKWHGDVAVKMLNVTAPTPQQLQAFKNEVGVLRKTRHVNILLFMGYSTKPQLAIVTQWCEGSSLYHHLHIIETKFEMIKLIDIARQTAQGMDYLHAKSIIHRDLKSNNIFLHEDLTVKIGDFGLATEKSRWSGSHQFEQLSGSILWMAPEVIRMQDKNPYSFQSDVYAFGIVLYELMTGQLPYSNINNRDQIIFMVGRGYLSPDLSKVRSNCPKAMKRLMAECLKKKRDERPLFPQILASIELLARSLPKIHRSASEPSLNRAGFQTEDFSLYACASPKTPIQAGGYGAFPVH

For `Cc1c[nH]c2ncc(-c3nn(C4CCN(C)CC4)cc3-c3ccnc(NCC(F)F)n3)cc12` [Example B-113, N-(2,2-difluoroethyl)-4-[1-(1-methylpiperidin-4-yl)-3-(3-methyl-1H-pyrrolo[2,3-b]pyridin-5-yl)-1H-pyrazol-4-yl]pyrimidin-2-amine], the pIC50 (usually the IC50 on a negative log10 scale, so that one unit is a factor of ten) was 8.83. Take `CC(C)n1cc(-c2ccnc(NC[C@H](C)O)n2)c(-c2cnc(N)nc2)n1` [Example B-42, (2S)-1-({4-[3-(2-aminopyrimidin-5-yl)-1-isopropyl-1H-pyrazol-4-yl]pyrimidin-2-yl}amino)propan-2-ol]: the pIC50 is 5.25. For `COc1cc(-c2nn(C3CC3)cc2-c2ccnc(NCC(F)F)n2)cnc1N` [Example B-59, 4-[3-(6-amino-5-methoxypyridin-3-yl)-1-cyclopropyl-1H-pyrazol-4-yl]-N-(2,2-difluoroethyl)pyrimidin-2-amine] the value was 8.16; for `CC(C)n1cc(-c2ccnc(NC[C@H](C)O)n2)c(-c2cnc3[nH]cc(Cl)c3n2)n1` [Example I-2, (2S)-1-({4-[3-(7-chloro-5H-pyrrolo[2,3-b]pyrazin-2-yl)-1-isopropyl-1H-pyrazol-4-yl]pyrimidin-2-yl}amino)propan-2-ol], 7.70.

In the case of `COc1cc(-c2nn(C(C)(C)C)cc2-c2ccnc(NCC(F)F)n2)cnc1N` [Example B-54, 4-[3-(6-amino-5-methoxypyridin-3-yl)-1-tert-butyl-1H-pyrazol-4-yl]-N-(2,2-difluoroethyl)pyrimidin-2-amine], the pIC50 was 8.91.

Regarding `Cn1ccc2ncc(-c3nn(CC(F)F)cc3-c3ccnc(NCCC#N)n3)cc21` [Example B-38], the pIC50 is 7.73. For `CC(C)(CO)n1cc(-c2ccnc(NCCC#N)n2)c(-c2cnc3[nH]cc(F)c3c2)n1` [Example B-24, 3-({4-[3-(3-fluoro-1H-pyrrolo[2,3-b]pyridin-5-yl)-1-(2-hydroxy-1,1-dimethylethyl)-1H-pyrazol-4-yl]pyrimidin-2-yl}amino)propanenitrile], the pIC50 is 8.49. With `COc1cc(-c2nn(C(F)F)cc2-c2ccnc(NC[C@H](C)O)n2)cnc1N` [Example B-41, (2S)-1-({4-[3-(6-amino-5-methoxypyridin-3-yl)-1-(difluoromethyl)-1H-pyrazol-4-yl]pyrimidin-2-yl}amino)propan-2-ol], the pIC50 is 7.11.

On to `Nc1nccc(-c2cn(CC(F)F)nc2-c2cnc3[nH]cc(Cl)c3c2)n1` [Example B-107, 4-[3-(3-chloro-1H-pyrrolo[2,3-b]pyridin-5-yl)-1-(2,2-difluoroethyl)-1H-pyrazol-4-yl]pyrimidin-2-amine], for which the negative-log IC50 (pIC50) was 8.09. As for `C[C@H](O)CNc1nccc(-c2cn(CC(F)F)nc2-c2cnc3ccn(C)c3c2)n1` [Example B-35, (2S)-1-({4-[1-(2,2-difluoroethyl)-3-(1-methyl-1H-pyrrolo[3,2-b]pyridin-6-yl)-1H-pyrazol-4-yl]pyrimidin-2-yl}amino)propan-2-ol], the pIC50 is 6.71.

On to `CC(C)(C#N)n1cc(-c2ccnc(NCCO)n2)c(-c2cnc3[nH]cc(Cl)c3c2)n1` [Example G-5, 2-[3-(3-chloro-1H-pyrollo[2,3-b]pyridin-5-yl)-4-{2-[(2-hydroxyethyl)amino]pyrimidin-4-yl}-1H-pyrazol-1-yl]-2-methylpropanenitrile], for which the pIC50 is 7.70. On to `COc1cc(-c2nn(C3CCOCC3)cc2-c2ccnc(NCC(F)F)n2)cnc1N` [Example B-70, 4-[3-(6-amino-5-methoxypyridin-3-yl)-1-(tetrahydro-2H-pyran-4-yl)-1H-pyrazol-4-yl]-N-(2,2-difluoroethyl)-pyrimidin-2-amine], for which the pIC50 is 8.63. With `CC(C)(CO)n1cc(-c2ccnc(NCC(F)F)n2)c(-c2cnc3[nH]ccc3c2)n1` [Example B-48, 2-[4-{2-[(2,2-difluoroethyl)amino]pyrimidin-4-yl}-3-(1H-pyrrolo[2,3-b]pyridin-5-yl)-1H-pyrazol-1-yl]-2-methylpropan-1-ol], the pIC50 is 7.52. The same measure for `COc1nc(-c2nn(C(C)(C)C)cc2-c2ccnc(NCCC#N)n2)cnc1N` [Example B-30, 3-({4-[3-(5-amino-6-methoxypyrazin-2-yl)-1-tert-butyl-1H-pyrazol-4-yl]pyrimidin-2-yl}amino)propanenitrile]: 9.70; for `C[C@H](O)CNc1nccc(-c2cn(C3CC(F)(F)C3)nc2-c2cnc3[nH]cc(Cl)c3c2)n1` [Example B-17, (2S)-1-({4-[3-(3-chloro-1H-pyrrolo[2,3-b]pyridin-5-yl)-1-(3,3-difluorocyclobutyl)-1H-pyrazol-4-yl]pyrimidin-2-yl}amino)propan-2-ol]: 7.21.

Regarding `COc1cc(-c2nn(C3CC3)cc2-c2ccnc(N)n2)cnc1N` [Example B-56, 4-[3-(6-amino-5-methoxypyridin-3-yl)-1-cyclopropyl-1H-pyrazol-4-yl]pyrimidin-2-amine], the pIC50 is 7.08. Consider `Cc1c[nH]c2ncc(-c3nn(C(C)C)cc3-c3ccnc(N)n3)cc12` [Example B-62, 4-[1-isopropyl-3-(3-methyl-1H-pyrrolo[2,3-b]pyridin-5-yl)-1H-pyrazol-4-yl]pyrimidin-2-amine], for which the pIC50 was 7.32. For the molecule `COc1cncc(-c2nn(CC(F)F)cc2-c2ccnc(NCCC#N)n2)c1` [Example B-46, 3-({4-[1-(2,2-difluoroethyl)-3-(5-methoxypyridin-3-yl)-1H-pyrazol-4-yl]pyrimidin-2-yl}amino)propanenitrile], the pIC50 is 7.80. For `CC(C)(C#N)n1cc(-c2ccnc(N)n2)c(-c2cnc3[nH]cc(Cl)c3c2)n1` [Example G-6, 2-[4-(2-aminopyrimidin-4-yl)-3-(3-chloro-1H-pyrrolo[2,3-b]pyridin-5-yl)-1H-pyrazol-1-yl]-2-methylpropanenitrile] the value was 7.76.

With `Clc1c[nH]c2ncc(-c3nn(C4CCNCC4)cc3-c3ccncn3)cc12` [Example B-64, 3-chloro-5-(1-piperidin-4-yl-4-pyrimidin-4-yl-1H-pyrazol-3-yl)-1H-pyrrolo[2,3-b]pyridine], the pIC50 is 7.21. For `OCCNc1nccc(-c2cn(CC(F)F)nc2-c2cnc3[nH]cc(Cl)c3c2)n1` [Example B-106, 2-({4-[3-(3-chloro-1H-pyrrolo[2,3-b]pyridin-5-yl)-1-(2,2-difluoroethyl)-1H-pyrazol-4-yl]pyrimidin-2-yl}amino)ethanol] the value was 7.98. `CC(C)(C)n1cc(-c2ccnc(NCCC#N)n2)c(-c2cnc3c(c2)CCN3)n1` [Example B-72, 3-({4-[1-tert-butyl-3-(2,3-dihydro-1H-pyrrolo[2,3-b]pyridin-5-yl)-1H-pyrazol-4-yl]pyrimidin-2-yl}amino)propanenitrile]: the pIC50 is 8.09.

For the molecule `CC(C)(CO)n1cc(-c2ccnc(N)n2)c(-c2cnc3[nH]cc(Cl)c3c2)n1` [Example E-6, 2-[4-(2-amino-pyrimidin-4-yl)-3-(3-chloro-1H-pyrrolo[2,3-b]pyridin-5-yl)-1H-pyrazol-1-yl]-2-methylpropan-1-ol], the pIC50 was 8.05. For `FC(F)CNc1nccc(-c2cn(CC(F)F)nc2-c2cnc3c(c2)CCN3)n1` [Example B-90, N-(2,2-difluoroethyl)-4-(1-(2,2-difluoroethyl)-3-(2,3-dihydro-1H-pyrrolo[2,3-b]pyridin-5-yl)-1H-pyrazol-4-yl)pyrimidin-2-amine], the pIC50 is 7.36. As to `C[C@H](O)CNc1nccc(-c2cn(CC3(C)COC3)nc2-c2cnc3[nH]cc(Cl)c3c2)n1` [Example B-98, (2S)-1-[(4-{3-(3-chloro-1H-pyrrolo[2,3-b]pyridin-5-yl)-1-[(3-methyloxetan-3-yl)methyl]-1H-pyrazol-4-yl}pyrimidin-2-yl)amino]propan-2-ol], the pIC50 was 6.84. For `C[C@H](O)CNc1nccc(-c2cn(CC(F)F)nc2-c2cnc3[nH]cc(F)c3c2)n1` [Example B-101, (2S)-1-({4-[1-(2,2-difluoroethyl)-3-(3-fluoro-1H-pyrrolo[2,3-b]pyridin-5-yl)-1H-pyrazol-4-yl]pyrimidin-2-yl}amino)propan-2-ol] the value was 6.97.

(Values after US7772246B2 (Pfizer Inc., priority 2007, dated 2010).)
